Reference: patent US11370770B2, “3-arylindazoles as selective MEK4 inhibitors” (priority 2019, dated 2022)

Columns and labels:
MEK1 [1] = molecular target: T1, MEK1 (Homo sapiens (Human), UniProt Q02750); experiment: MEK family profiling ADP-Glo, MEK1; assay type: biochemical; settings: Erk2 substrate; 0.6 μM ATP; read-out: IC50 MEK isoform 1
MEK3 = MEK3 (Homo sapiens (Human), UniProt P46734); experiment: MEK family profiling ADP-Glo, MEK3; assay type: biochemical; settings: p38α substrate; 0.6 μM ATP; read-out: IC50 MEK isoform 3
[2] = Dynamic light scattering (compound aggregation); assay type: physicochemical; settings: 20, 5 and 1 μM in buffer with and without Triton X-100
[3] = molecular target: ABL1(T3151)-non-phosphorylated (Homo sapiens (Human), UniProt P00519, T315I); experiment: KINOMEscan binding assay; settings: percent of control
ABL1-phophorylated = ABL1-phophorylated (Homo sapiens (Human), UniProt P00519); experiment: KINOMEscan binding assay; settings: percent of control
CAMK4 = CAMK4 (Homo sapiens (Human), UniProt Q16566); experiment: KINOMEscan binding assay; settings: percent of control
CDK2 = CDK2 (Homo sapiens (Human), UniProt P24941); experiment: KINOMEscan binding assay; settings: percent of control
CDK9 = CDK9 (Homo sapiens (Human), UniProt P50750); experiment: KINOMEscan binding assay; settings: percent of control
[4] = molecular target: (Homo sapiens (Human), UniProt P49761); experiment: KINOMEscan binding assay; settings: C;L3; percent of control
[5] = molecular target: (Homo sapiens (Human), UniProt P49674); experiment: KINOMEscan binding assay; settings: CSML1E; percent of control
CSML2A1 = CSML2A1 (Homo sapiens (Human), UniProt P68400); experiment: KINOMEscan binding assay; settings: percent of control
IKK-ALPHA = IKK-ALPHA (Homo sapiens (Human), UniProt O15111); experiment: KINOMEscan binding assay; settings: percent of control
MEK5 = MEK5 (Homo sapiens (Human), UniProt Q13163); experiment: KINOMEscan binding assay; settings: percent of control
MEK6 = MEK6 (Homo sapiens (Human), UniProt P52564); experiment: KINOMEscan binding assay; settings: percent of control
MKNK2 = MKNK2 (Homo sapiens (Human), UniProt Q9HBH9); experiment: KINOMEscan binding assay; settings: percent of control
PCTK3 = PCTK3 (Homo sapiens (Human), UniProt Q07002); experiment: KINOMEscan binding assay; settings: percent of control
PIK4CB = PIK4CB (Homo sapiens (Human), UniProt Q9UBF8); experiment: KINOMEscan binding assay; settings: percent of control
PKN2 = PKN2 (Homo sapiens (Human), UniProt Q16513); experiment: KINOMEscan binding assay; settings: percent of control
PRKG1 = PRKG1 (Homo sapiens (Human), UniProt Q13976); experiment: KINOMEscan binding assay; settings: percent of control
RAF1 = RAF1 (Homo sapiens (Human), UniProt P04049); experiment: KINOMEscan binding assay; settings: percent of control
SNARK = SNARK (Homo sapiens (Human), UniProt Q9H093); experiment: KINOMEscan binding assay; settings: percent of control
PC3M cells = experiment: Scratch wound assay; assay type: cell-based
MEK1 [6] = molecular target: T1, MEK1; experiment: KINOMEscan binding assay; settings: percent of control

T1 sequence (Q02750 whole entry, canonical isoform): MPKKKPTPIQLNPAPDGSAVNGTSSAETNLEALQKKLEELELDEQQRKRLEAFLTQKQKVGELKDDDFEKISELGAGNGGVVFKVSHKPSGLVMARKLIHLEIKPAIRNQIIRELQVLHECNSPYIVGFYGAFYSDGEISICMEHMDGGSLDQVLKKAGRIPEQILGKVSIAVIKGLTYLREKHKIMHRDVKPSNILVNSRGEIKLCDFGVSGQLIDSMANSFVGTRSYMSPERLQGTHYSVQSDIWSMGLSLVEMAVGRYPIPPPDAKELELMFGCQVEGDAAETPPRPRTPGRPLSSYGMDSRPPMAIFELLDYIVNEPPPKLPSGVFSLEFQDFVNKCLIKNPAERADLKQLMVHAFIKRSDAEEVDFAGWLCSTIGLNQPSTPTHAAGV
Chain of IKK-ALPHA (O15111 whole entry): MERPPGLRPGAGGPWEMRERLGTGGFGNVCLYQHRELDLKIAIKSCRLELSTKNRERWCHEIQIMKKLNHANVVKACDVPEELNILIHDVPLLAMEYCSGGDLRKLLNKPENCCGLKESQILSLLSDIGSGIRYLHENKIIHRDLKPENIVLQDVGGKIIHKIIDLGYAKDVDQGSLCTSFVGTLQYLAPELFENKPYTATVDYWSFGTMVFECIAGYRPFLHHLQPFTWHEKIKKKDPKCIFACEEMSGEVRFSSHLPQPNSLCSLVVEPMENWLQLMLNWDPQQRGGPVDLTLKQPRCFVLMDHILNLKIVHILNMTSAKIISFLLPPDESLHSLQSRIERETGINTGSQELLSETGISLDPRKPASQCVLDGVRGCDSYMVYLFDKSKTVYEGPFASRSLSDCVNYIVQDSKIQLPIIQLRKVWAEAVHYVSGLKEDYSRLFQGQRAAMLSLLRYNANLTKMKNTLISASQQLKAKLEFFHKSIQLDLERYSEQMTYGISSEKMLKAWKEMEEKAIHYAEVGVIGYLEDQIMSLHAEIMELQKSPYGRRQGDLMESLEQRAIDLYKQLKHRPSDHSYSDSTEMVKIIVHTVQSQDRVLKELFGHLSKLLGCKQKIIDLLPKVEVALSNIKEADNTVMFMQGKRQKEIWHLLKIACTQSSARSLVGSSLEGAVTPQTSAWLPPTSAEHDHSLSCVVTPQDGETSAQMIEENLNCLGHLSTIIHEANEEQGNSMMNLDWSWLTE
Chain of MEK6 (P52564 whole entry): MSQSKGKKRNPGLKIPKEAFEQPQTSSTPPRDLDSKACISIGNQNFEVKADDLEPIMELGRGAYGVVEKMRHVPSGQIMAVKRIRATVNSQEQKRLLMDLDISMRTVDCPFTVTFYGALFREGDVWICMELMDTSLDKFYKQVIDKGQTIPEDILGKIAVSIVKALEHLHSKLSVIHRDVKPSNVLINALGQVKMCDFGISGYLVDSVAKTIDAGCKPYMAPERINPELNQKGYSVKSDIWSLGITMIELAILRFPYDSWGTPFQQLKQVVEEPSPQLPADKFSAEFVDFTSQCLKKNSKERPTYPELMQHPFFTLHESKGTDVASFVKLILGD
Chain of MKNK2 (Q9HBH9 whole entry): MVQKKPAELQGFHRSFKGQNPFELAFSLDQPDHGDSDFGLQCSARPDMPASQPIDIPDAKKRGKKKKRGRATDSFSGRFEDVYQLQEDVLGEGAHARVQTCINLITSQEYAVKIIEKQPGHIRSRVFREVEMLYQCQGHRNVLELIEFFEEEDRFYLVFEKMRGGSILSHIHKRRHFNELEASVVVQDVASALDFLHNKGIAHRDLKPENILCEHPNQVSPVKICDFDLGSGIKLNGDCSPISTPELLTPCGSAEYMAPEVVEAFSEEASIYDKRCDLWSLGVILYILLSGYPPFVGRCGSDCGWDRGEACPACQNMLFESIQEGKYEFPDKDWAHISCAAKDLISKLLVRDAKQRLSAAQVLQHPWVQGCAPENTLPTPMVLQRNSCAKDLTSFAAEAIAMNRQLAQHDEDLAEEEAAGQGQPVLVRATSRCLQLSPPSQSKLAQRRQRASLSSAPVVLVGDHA
Chain of CAMK4 (Q16566 whole entry): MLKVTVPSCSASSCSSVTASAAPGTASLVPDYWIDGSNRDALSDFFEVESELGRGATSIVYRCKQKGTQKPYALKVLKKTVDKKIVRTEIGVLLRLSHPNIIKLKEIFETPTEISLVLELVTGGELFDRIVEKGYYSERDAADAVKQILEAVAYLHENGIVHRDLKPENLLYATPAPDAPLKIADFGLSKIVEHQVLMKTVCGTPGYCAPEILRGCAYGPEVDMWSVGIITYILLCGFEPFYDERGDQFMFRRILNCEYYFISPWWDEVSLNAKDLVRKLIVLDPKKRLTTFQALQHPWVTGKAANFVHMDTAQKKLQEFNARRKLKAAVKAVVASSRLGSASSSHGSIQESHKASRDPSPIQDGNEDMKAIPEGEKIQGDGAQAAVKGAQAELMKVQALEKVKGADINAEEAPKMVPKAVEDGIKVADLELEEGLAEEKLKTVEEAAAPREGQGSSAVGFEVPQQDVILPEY
Chain of CDK9 (P50750 whole entry): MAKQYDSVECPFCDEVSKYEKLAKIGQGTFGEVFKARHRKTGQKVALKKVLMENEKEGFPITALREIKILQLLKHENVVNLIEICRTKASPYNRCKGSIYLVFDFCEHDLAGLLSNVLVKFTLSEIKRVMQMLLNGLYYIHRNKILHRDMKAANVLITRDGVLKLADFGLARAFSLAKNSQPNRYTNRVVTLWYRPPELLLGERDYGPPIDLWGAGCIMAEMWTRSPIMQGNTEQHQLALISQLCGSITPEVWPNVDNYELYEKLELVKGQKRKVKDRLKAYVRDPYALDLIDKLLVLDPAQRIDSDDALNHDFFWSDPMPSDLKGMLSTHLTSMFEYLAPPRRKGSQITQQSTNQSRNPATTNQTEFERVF
Chain of SNARK (Q9H093 whole entry): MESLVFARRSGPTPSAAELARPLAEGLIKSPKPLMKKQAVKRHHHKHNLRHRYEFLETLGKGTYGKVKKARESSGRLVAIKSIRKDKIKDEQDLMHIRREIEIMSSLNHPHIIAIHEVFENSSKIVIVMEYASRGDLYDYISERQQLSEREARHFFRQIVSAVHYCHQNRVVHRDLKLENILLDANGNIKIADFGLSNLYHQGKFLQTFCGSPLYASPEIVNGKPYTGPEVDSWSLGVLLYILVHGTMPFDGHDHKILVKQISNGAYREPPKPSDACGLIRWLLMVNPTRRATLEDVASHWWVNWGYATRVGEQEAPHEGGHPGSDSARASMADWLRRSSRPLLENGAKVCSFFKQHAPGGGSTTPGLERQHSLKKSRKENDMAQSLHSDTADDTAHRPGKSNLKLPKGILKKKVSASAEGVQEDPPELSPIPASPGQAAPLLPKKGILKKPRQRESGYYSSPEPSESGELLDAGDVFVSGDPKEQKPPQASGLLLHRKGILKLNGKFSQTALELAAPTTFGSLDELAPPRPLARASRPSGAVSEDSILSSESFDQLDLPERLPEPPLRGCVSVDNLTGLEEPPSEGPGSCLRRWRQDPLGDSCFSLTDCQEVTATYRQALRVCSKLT
Chain of PRKG1 (Q13976 whole entry): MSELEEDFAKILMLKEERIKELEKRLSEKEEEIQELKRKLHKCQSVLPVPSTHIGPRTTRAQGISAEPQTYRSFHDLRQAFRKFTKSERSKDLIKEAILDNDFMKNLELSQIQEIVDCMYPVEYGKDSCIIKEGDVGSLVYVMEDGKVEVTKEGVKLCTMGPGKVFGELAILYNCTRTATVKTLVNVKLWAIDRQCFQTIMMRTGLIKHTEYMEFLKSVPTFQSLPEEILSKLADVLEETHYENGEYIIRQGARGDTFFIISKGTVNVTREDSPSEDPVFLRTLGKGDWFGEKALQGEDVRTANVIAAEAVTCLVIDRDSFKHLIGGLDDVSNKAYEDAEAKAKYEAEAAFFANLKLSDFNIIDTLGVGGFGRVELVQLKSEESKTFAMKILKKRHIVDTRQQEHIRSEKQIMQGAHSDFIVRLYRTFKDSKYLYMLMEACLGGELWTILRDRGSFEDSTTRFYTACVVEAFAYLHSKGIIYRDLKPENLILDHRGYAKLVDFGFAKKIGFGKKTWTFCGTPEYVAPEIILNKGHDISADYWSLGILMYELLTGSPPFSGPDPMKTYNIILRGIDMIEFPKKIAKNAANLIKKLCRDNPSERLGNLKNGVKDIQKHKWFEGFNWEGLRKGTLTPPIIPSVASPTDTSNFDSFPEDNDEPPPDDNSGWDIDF
Chain of MEK5 (Q13163 whole entry): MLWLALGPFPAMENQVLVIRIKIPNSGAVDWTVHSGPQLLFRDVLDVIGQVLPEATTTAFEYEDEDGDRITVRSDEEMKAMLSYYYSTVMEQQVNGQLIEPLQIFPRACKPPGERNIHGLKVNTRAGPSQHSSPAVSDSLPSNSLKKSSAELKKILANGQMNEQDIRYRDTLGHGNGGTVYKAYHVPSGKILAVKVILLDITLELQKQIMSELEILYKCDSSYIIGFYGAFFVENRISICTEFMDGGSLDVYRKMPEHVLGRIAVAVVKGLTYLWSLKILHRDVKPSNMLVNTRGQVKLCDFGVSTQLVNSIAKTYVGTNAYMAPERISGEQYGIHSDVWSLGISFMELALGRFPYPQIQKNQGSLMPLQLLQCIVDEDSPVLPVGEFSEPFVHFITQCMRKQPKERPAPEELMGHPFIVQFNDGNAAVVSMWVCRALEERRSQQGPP
Chain of CSML2A1 (P68400 whole entry): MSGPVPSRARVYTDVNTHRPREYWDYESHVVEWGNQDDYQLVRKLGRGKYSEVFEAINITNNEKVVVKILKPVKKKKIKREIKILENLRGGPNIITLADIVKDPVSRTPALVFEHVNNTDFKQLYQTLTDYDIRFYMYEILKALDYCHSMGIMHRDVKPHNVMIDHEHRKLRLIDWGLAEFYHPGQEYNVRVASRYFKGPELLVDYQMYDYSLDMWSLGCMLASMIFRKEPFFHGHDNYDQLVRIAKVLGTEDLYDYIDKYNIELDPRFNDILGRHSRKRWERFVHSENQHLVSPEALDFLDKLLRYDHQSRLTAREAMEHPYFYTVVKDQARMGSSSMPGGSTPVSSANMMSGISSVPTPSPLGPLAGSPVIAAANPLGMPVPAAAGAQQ

| Structure (SMILES) | IC50 (MEK1 [1]) [µM] | IC50 (MEK3) [µM] | % Ctrl @ 10000 nM [3] [% Ctrl] | % Ctrl @ 10000 nM (ABL1-phophorylated) [% Ctrl] | % Ctrl @ 10000 nM (CAMK4) [% Ctrl] | % Ctrl @ 10000 nM (CDK2) [% Ctrl] | % Ctrl @ 10000 nM (CDK9) [% Ctrl] | % Ctrl @ 10000 nM [4] [% Ctrl] | % Ctrl @ 10000 nM [5] [% Ctrl] | % Ctrl @ 10000 nM (CSML2A1) [% Ctrl] | % Ctrl @ 10000 nM (IKK-ALPHA) [% Ctrl] | % Ctrl @ 10000 nM (MEK5) [% Ctrl] | % Ctrl @ 10000 nM (MEK6) [% Ctrl] | % Ctrl @ 10000 nM (MKNK2) [% Ctrl] | % Ctrl @ 10000 nM (PCTK3) [% Ctrl] | % Ctrl @ 10000 nM (PIK4CB) [% Ctrl] | % Ctrl @ 10000 nM (PKN2) [% Ctrl] | % Ctrl @ 10000 nM (PRKG1) [% Ctrl] | % Ctrl @ 10000 nM (RAF1) [% Ctrl] | % Ctrl @ 10000 nM (SNARK) [% Ctrl] | further results |
| --- | --- | --- | --- | --- | --- | --- | --- | --- | --- | --- | --- | --- | --- | --- | --- | --- | --- | --- | --- | --- | --- |
| O=C(O)c1cccc(-c2n[nH]c3ccccc23)c1 [Compound 6a, 3-(1H-indazol-3-yl)benzoic Acid] | 12 | 16 | 67 | 86 | 100 | 97 | 95 | 94 | 88 | 0.75 | 50 | 88 | 91 | 66 | 100 | 0 | 100 | 100 | 100 | 68 | compound aggregates by DLS [2]: under no conditions were aggregates observed |
| O=C(O)c1ccc(-c2n[nH]c3cc(F)ccc23)cc1 [Compound 6ff, 4-(6-fluoro-2H-indazol-3-yl)benzoic Acid] | 15 | > 27 | 15 | 73 | 100 | 100 | 98 | 100 | 100 | 0 | 14 | 44 | 78 | 43 | 100 | 28 | 95 | 100 | 100 | 53 | efficacy in wound scratch assay (PC3M cells; 10 μM): no efficacy; efficacy in wound scratch assay (PC3M cells; 25 μM): no efficacy; Percent Difference, DMSO vs. 10 uM inhibitor (PC3M cells; PC3M cells, 10 μM, wound gap 0 vs 20 hrs): −1.65%; Percent Difference, DMSO vs. 25 uM inhibitor (PC3M cells; PC3M cells, 25 μM, wound gap 0 vs 20 hrs): −0.16%; % Ctrl @ 10000 nM (MEK1 [6]): 49 % Ctrl |
